Laboratory results taken from patent US12667735B2, “Methods for reducing pain during photodynamic therapy of actinic keratosis” (Sun Pharmaceutical Industries, Inc., priority 2019, dated 2026).
Where “and” joins values, the source holds several entries; their conditions need not be identical. Equal values may be shown once.

Assays:
[1] = Pain during blue light illumination (0 to 10 VAS); format: in vivo, human; settings: for Pain score (0-to-10 VAS) during illumination / Pain score (0-to-10 VAS) during illumination, Mean: individual patients; for Pain score (0-to-10 VAS) during illumination, Mean: mean over time points; for Mean VAS pain score during illumination: all 23 patients, linear mixed-effect model, 0-10 scale
Protocol: The term “Visual Analogue Scale for Pain (referred to as VAS pain score hereafter) as used herein, is defined as follows: An 11-point numerical pain scale wherein patients report a number (from 0 to 10) that most closely reflects the level of pain they are experiencing at that particular moment; 0 corresponds to no pain and 10 corresponds to the worst pain imaginable (Breivik, HaraldScandinavian Journal of Pain 2016; 11:150-152).
(§1) Several secondary endpoints were also measured. For pain assessment, patients were asked every 5 to 10 min during illumination to report their pain on a 0 to 10 visual-analog (VAS) scale. Erythema was recorded photographically at Day 1 and on Day 4 post PDT. A side effect profile was recorded by each patient in a daily home questionnaire to document the presence or absence of eleven different signs and symptoms in the 4 days immediately following PDT (see Table 2).
The primary endpoint was AK lesion reduction. […] Statistical significance was considered with a p-value <0.05.

[2] = Daily home questionnaire of side effects, first 4 days after PDT; format: in vivo, human; settings: Side A (test PDT); for Pain Score Mean (0-10 visual-analog scale): average of 23 patients
Protocol: as §1

- Pain score (0-to-10 VAS) during illumination ([1]; SIDE A (test PDT), 10 min during illumination, 30 min test PDT cohort): 0 (3×) and 2 and 3 and 1
- Pain score (0-to-10 VAS) during illumination ([1]; SIDE A (test PDT), 10 min during illumination, 45 min test PDT cohort): 0 (5×) and 1 (3×)
- Pain score (0-to-10 VAS) during illumination ([1]; SIDE A (test PDT), 10 min during illumination, 60 min test PDT cohort): 0
- Pain score (0-to-10 VAS) during illumination ([1]; SIDE A (test PDT), 20 min during illumination, 30 min test PDT cohort): 0 (2×) and 2 and 5 and 1 (2×)
- Pain score (0-to-10 VAS) during illumination ([1]; SIDE A (test PDT), 20 min during illumination, 45 min test PDT cohort): 0 (6×) and 1 (2×)
- Pain score (0-to-10 VAS) during illumination ([1]; SIDE A (test PDT), 20 min during illumination, 60 min test PDT cohort): 0
- Pain score (0-to-10 VAS) during illumination ([1]; SIDE A (test PDT), 30 min during illumination, 30 min test PDT cohort): 0 (2×) and 2 and 6 and 1 (2×)
- Pain score (0-to-10 VAS) during illumination ([1]; SIDE A (test PDT), 30 min during illumination, 45 min test PDT cohort): 0 (7×) and 1
- Pain score (0-to-10 VAS) during illumination ([1]; SIDE A (test PDT), 30 min during illumination, 60 min test PDT cohort): 0
- Pain score (0-to-10 VAS) during illumination ([1]; SIDE A (test PDT), 40 min during illumination, 45 min test PDT cohort): 0 (6×) and 1 (2×)
- Pain score (0-to-10 VAS) during illumination ([1]; SIDE A (test PDT), 40 min during illumination, 60 min test PDT cohort): 0
- Pain score (0-to-10 VAS) during illumination ([1]; SIDE A (test PDT), 50 min during illumination): 0
- Pain score (0-to-10 VAS) during illumination, Mean ([1]; SIDE A (test PDT), 30 min test PDT cohort): 0.0 (3×) and 2.0 and 4.7 and 0.7 and 1.0
- Pain score (0-to-10 VAS) during illumination, Mean ([1]; SIDE A (test PDT), 45 min test PDT cohort): 0.0 (4×) and 0.3 (2×) and 1.0 and 0.5
- Pain score (0-to-10 VAS) during illumination, Mean ([1]; SIDE A (test PDT), 60 min test PDT cohort): 0.0 (5×) and 0.8 (2×) and 0.2
- Pain score (0-to-10 VAS) during illumination ([1]; SIDE B (control PDT), 5 min during illumination, 30 min test PDT cohort): 2 and 10 (2×) and 4 and 5 and 3
- Pain score (0-to-10 VAS) during illumination ([1]; SIDE B (control PDT), 5 min during illumination, 45 min test PDT cohort): 8 and 4 (3×) and 3 and 2 and 5 and 1
- Pain score (0-to-10 VAS) during illumination ([1]; SIDE B (control PDT), 5 min during illumination, 60 min test PDT cohort): 1
- Pain score (0-to-10 VAS) during illumination ([1]; SIDE B (control PDT), 10 min during illumination, 30 min test PDT cohort): 1 and 7 and 5 and 4 and 3 (2×)
- Pain score (0-to-10 VAS) during illumination ([1]; SIDE B (control PDT), 10 min during illumination, 45 min test PDT cohort): 3 (3×) and 2 and 4 and 5 (2×) and 1
- Pain score (0-to-10 VAS) during illumination ([1]; SIDE B (control PDT), 10 min during illumination, 60 min test PDT cohort): 1
- Pain score (0-to-10 VAS) during illumination ([1]; SIDE B (control PDT), 15 min during illumination, 30 min test PDT cohort): 0 and 5 and 6 and 4 and 1 and 3
- Pain score (0-to-10 VAS) during illumination ([1]; SIDE B (control PDT), 15 min during illumination, 45 min test PDT cohort): 0 and 2 (3×) and 1 and 3 and 4 and 5
- Pain score (0-to-10 VAS) during illumination ([1]; SIDE B (control PDT), 15 min during illumination, 60 min test PDT cohort): 0
- Mean VAS pain score during illumination ([1]; Side A (test PDT)): 0.52
- Mean VAS pain score during illumination ([1]; Side B (control PDT)): 3.57
- Pain during illumination, test PDT side versus control side ([1]; substantially no pre-illumination gap versus 1 hour gap): drastically reduced
Compound: NCC(=O)CCC(=O)O [ALA, 5-aminolevulinic acid]
- Pain score (0-to-10 VAS) during illumination, Mean ([1]; SIDE B (control PDT), 30 min test PDT cohort): 1.0 and 7.3 and 7.0 and 4.0 and 3.0 (2×) and 4.7
- Pain score (0-to-10 VAS) during illumination, Mean ([1]; SIDE B (control PDT), 45 min test PDT cohort): 3.7 (2×) and 3.0 and 2.7 and 1.7 and 4.3 and 5.0 and 1.3
- Pain score (0-to-10 VAS) during illumination, Mean ([1]; SIDE B (control PDT), 60 min test PDT cohort): 0.7 and 6.3 and 4.3 and 1.0 and 3.7 (2×) and 6.7 and 0.3
- Bleeding ([2]; DAY 1): 0, 0 percentage of patients
- Blisters ([2]; DAY 1): 13, 13 percentage of patients
- Burning ([2]; DAY 1): 65, 65 percentage of patients
- Crusting ([2]; DAY 1): 9 percentage of patients
- Itching ([2]; DAY 1): 43, 43 percentage of patients
- Open sores ([2]; DAY 1): 0, 0 percentage of patients
- Peeling ([2]; DAY 1): 4 percentage of patients
- Redness ([2]; DAY 1): 91, 91 percentage of patients
- Stinging ([2]; DAY 1): 65, 65 percentage of patients
- Swelling ([2]; DAY 1): 26 percentage of patients
- Pain Score Mean (0-10 visual-analog scale) ([2]; DAY 1): 3.0
- Bleeding ([2]; DAY 2): 17 percentage of patients
- Blisters ([2]; DAY 2): 4 percentage of patients
- Burning ([2]; DAY 2): 52, 52 percentage of patients
- Crusting ([2]; DAY 2): 9 percentage of patients
- Itching ([2]; DAY 2): 74, 74 percentage of patients
- Open sores ([2]; DAY 2): 9, 9 percentage of patients
- Peeling ([2]; DAY 2): 4 percentage of patients
- Redness ([2]; DAY 2): 100, 100 percentage of patients
- Stinging ([2]; DAY 2): 70, 70 percentage of patients
- Swelling ([2]; DAY 2): 26, 26 percentage of patients
- Pain Score Mean (0-10 visual-analog scale) ([2]; DAY 2): 2.5
- Bleeding ([2]; DAY 3): 13 percentage of patients
- Blisters ([2]; DAY 3): 17 percentage of patients
- Burning ([2]; DAY 3): 35, 35 percentage of patients
- Crusting ([2]; DAY 3): 30 percentage of patients
- Itching ([2]; DAY 3): 70 percentage of patients
- Open sores ([2]; DAY 3): 9, 9 percentage of patients
- Peeling ([2]; DAY 3): 22 percentage of patients
- Redness ([2]; DAY 3): 91 percentage of patients
- Stinging ([2]; DAY 3): 39, 39 percentage of patients
- Swelling ([2]; DAY 3): 9 percentage of patients
- Pain Score Mean (0-10 visual-analog scale) ([2]; DAY 3): 1.6
- Bleeding ([2]; DAY 4): 17 percentage of patients
- Blisters ([2]; DAY 4): 4 percentage of patients
- Burning ([2]; DAY 4): 26, 26 percentage of patients
- Crusting ([2]; DAY 4): 35, 35 percentage of patients
- Itching ([2]; DAY 4): 65, 65 percentage of patients
- Open sores ([2]; DAY 4): 4, 4 percentage of patients
- Peeling ([2]; DAY 4): 48 percentage of patients
- Redness ([2]; DAY 4): 83 percentage of patients
- Stinging ([2]; DAY 4): 35, 35 percentage of patients
